Values of other authors, collected in US20030157061A1, “Combinations of a cyclooxygenase-2 selective inhibitor and a TNFalpha antagonist and therapeutic uses therefor” (Pharmacia Corporation, priority 2001, published 2003).

Tested on: fibroblast growth factor-induced corneal angiogenesis
Conditions: rats

Q: For Cc1ccc(-c2cc(C(F)(F)F)nn2-c2ccc(S(N)(=O)=O)cc2)cc1 [Celecoxib, 4-[5-(4-methylphenyl)-3-(trifluoromethyl)-1H-pyrazol-1-yl]benzenesulfonamide], which “inhibition of fibroblast growth factor-induced corneal angiogenesis” value is on record?
A: potent inhibition
